Key:
[1] = biological target: MET kinase (c-MET), kinase domain of human Met (Homo sapiens, UniProt P08581); assay: MET luminescence-based enzyme assay (Kinase-Glo)
[2] = test system: GTL16; assay: GTL16 cell assay (EC50); type: cell-based; settings: Homo sapiens, GTL 16
[3] = test system: GTL16 tumors; assay: GTL16 tumor xenograft model, tumor growth inhibition; type: in vivo, female athymic nude mice; settings: for decrease of mean tumor volume compared to vehicle-treated group: last day of treatment
Experimental: GTL16 Tumor Xenograft Model
Female athymic nude mice (nu/nu from Harlan) were 6-8 weeks old with a body weight range of 18-22 g at the beginning of the study. The animals had free access to food and water throughout the study. The mice were housed on irradiated Alpha-dri® Bed-O-Cobs® Laboratory Animal Bedding in static micro isolator caging on a 12-hour light cycle at 70-74° F. and 40-60% humidity. All procedures involving animals were conducted in compliance with the NIH Guide for the Care and Use of Laboratory Animals and all protocols were approved by an Internal Animal Care and Use Committee (IACUC).
Xenografts were initiated from GTL-16 tumor cells cultured and maintained by an internal Cell Biology Department. Each test mouse received a subcutaneous injection of 4×10^6 cells suspended in 100 μL of serum free RPMI media. Tumors were randomized into treatment groups on Day 5 when the average tumor size reached approximately 150 mm^3. Each dose groups contained n=5 mice. Tumor volume was calculated using the formula: Tumor Volume=(w^2×l)/2, where w=width and l=length in mm of the tumor. Tumor weight may be estimated with the assumption that 1 mg is equivalent to 1 mm^3 of tumor volume.
Tumor Growth Inhibition (TGI) Analysis
TGI was calculated from the difference between the mean tumor volumes of vehicle-treated and drug-treated mice, expressed as a percentage.
The MTV is defined as the mean tumor volume (MTV) for the number of animals, n, remaining in the study on that day.

Sequence of MET kinase (c-MET), kinase domain of human Met (P08581 1078-1345 limits assumed): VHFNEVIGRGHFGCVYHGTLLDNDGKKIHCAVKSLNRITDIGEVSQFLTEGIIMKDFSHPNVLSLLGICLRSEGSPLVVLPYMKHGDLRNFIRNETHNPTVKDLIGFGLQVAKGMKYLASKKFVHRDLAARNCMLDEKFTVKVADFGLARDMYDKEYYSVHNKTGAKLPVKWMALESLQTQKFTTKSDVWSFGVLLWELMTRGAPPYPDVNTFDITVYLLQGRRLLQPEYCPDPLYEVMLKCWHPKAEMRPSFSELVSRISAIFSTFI

Compound: CNC(=O)c1ccc(-c2ccc3nnc(Cc4ccc5ncccc5c4)n3n2)cc1F [compound 30]
- IC50 [1]: < 100 nM
- EC50 ([2]; Table 1): < 100 nM
- decrease of mean tumor volume compared to vehicle-treated group ([3]; 3 mg/kg PO BID for 14 consecutive days, p<0.2743): 27%
- decrease of mean tumor volume compared to vehicle-treated group ([3]; 50 mg/kg IP BID for 14 consecutive days, p<0.0036): 89%
- inhibition of growth of GTL16 tumors grown subcutaneously ([3]; IP dose 50 mg/kg BID, 14 consecutive days): statistically significant inhibition

Compound: Cc1ccc2nnc(Cc3ccc4ncc(-c5cnn(C)c5)cc4c3)n2n1 [compound 124, 3-(1-Methyl-1H-pyrazol-4-yl)-6-(6-methyl-[1,2,4]triazolo[4,3-b]pyridazin-3-ylmethyl)-quinoline]
- IC50 [1]: < 100 nM
- EC50 ([2]; Table 2): < 100 nM
- decrease of mean tumor volume compared to vehicle-treated group ([3]; 1 mg/kg PO Q12H for 14.5 consecutive days, p=0.0079): 32%
- decrease of mean tumor volume compared to vehicle-treated group ([3]; 3 mg/kg PO Q12H for 14.5 consecutive days, p<0.0001): 55%
- decrease of mean tumor volume compared to vehicle-treated group ([3]; 10 mg/kg PO Q12H for 14.5 consecutive days, p<0.0001): 72%
- decrease of mean tumor volume compared to vehicle-treated group ([3]; 30 mg/kg PO Q12H for 14.5 consecutive days, p<0.0001): 79%

Compound: CCc1ccc2nnc(Cc3cc4cc(-c5cnn(C)c5)cnc4cc3F)n2n1 [compound 165]
- IC50 [1]: < 100 nM
- EC50 ([2]; Table 2): < 100 nM

Compound: CCc1ccc2nnc(Cc3c(F)cc4ncc(-c5cnn(C)c5)cc4c3F)n2n1 [compound 166, 6-(6-Ethyl-[1,2,4]triazolo[4,3-b]pyridazin-3-ylmethyl)-5,7-difluoro-3-(1-methyl-1H-pyrazol-4-yl)-quinoline]
- IC50 [1]: < 100 nM
- EC50 ([2]; Table 2): < 100 nM

Compound: Cn1cc(-c2cnc3cc(F)c(Cc4nnc5cccnn45)cc3c2)cn1 [compound 167]
- IC50 [1]: < 100 nM
- EC50 ([2]; Table 2): 10000 to 50000 nM

Compound: Cc1ccc2nnc(Cc3ccc4ncc(-c5cnn(CCN(C)C)c5)cc4c3)n2n1 [compound 168]
- IC50 [1]: < 100 nM
- EC50 ([2]; Table 2): < 100 nM

Compound: Cc1ccc2nnc(Cc3ccc4ncc(-c5cnn(CC6CN(C(=O)OC(C)(C)C)C6)c5)cc4c3)n2n1 [compound 169]
- IC50 [1]: < 100 nM
- EC50 ([2]; Table 2): < 100 nM

Compound: Cc1ccc2nnc(Cc3ccc4ncc(-c5cnn(CCN6CCCC6)c5)cc4c3)n2n1 [compound 170]
- IC50 [1]: < 100 nM
- EC50 ([2]; Table 2): < 100 nM

Compound: CCN1CC(n2cc(-c3cnc4ccc(Cc5nnc6ccc(C)nn56)cc4c3)cn2)C1 [compound 171, 3-[1-(1-Ethyl-azetidin-3-yl)-1H-pyrazol-4-yl]-6-(6-methyl-[1,2,4]triazolo[4,3-b]pyridazin-3-ylmethyl)-quinoline]
- IC50 [1]: < 100 nM
- EC50 ([2]; Table 2): < 100 nM

Compound: Cc1ccc2nnc(Cc3ccc4ncc(-c5cnn(CC6CN(S(C)(=O)=O)C6)c5)cc4c3)n2n1 [compound 172, 3-[1-(1-Methanesulfonyl-azetidin-3-ylmethyl)-1H-pyrazol-4-yl]-6-(6-methyl-[1,2,4]triazolo[4,3-b]pyridazin-3-ylmethyl)-quinoline]
- IC50 [1]: < 100 nM
- EC50 ([2]; Table 2): 100 to 1000 nM

Compound: CCN(CC)CCn1cc(-c2cnc3ccc(Cc4nnc5ccc(C)nn45)cc3c2)cn1 [compound 173]
- IC50 [1]: < 100 nM
- EC50 ([2]; Table 2): < 100 nM

Compound: Cn1cc(-c2cnc3cc(F)c(Cc4nnc5cccnn45)c(F)c3c2)cn1 [compound 174]
- IC50 [1]: < 100 nM
- EC50 ([2]; Table 2): 100 to 1000 nM

Compound: CC(=O)N1CC(n2cc(-c3cnc4ccc(Cc5nnc6ccc(C)nn56)cc4c3)cn2)C1 [compound 175, 1-(3-{4-[6-(6-Methyl-[1,2,4]triazolo[4,3-b]pyridazin-3-ylmethyl)-quinolin-3-yl]-pyrazol-1-yl}-azetidin-1-yl)-ethanone]
- IC50 [1]: < 100 nM
- EC50 ([2]; Table 2): 100 to 1000 nM

Compound: Cc1ccc2nnc(Cc3c[nH]c4ncc(-c5cnn(C)c5)cc34)n2n1 [compound 177, 6-Methyl-3-[5-(1-methyl-1H-pyrazol-4-yl)-1H-pyrrolo[2,3-b]pyridine-3-ylmethyl]-[1,2,4]triazolo[4,3-b]pyridazine]
- IC50 [1]: < 100 nM
- EC50 ([2]; Table 2): 100 to 1000 nM

Compound: Cn1cc(-c2cnc3ccc(Cc4nnc5nccnn45)cc3c2)cn1 [compound 179, 3-(1-Methyl-1H-pyrazol-4-yl)-6-[1,2,4]triazolo[4,3-b][1,2,4]triazin-3-ylmethyl-quinoline]
- IC50 [1]: < 100 nM
- EC50 ([2]; Table 2): < 100 nM

Compound: CCN1CC(Cn2cc(-c3cnc4ccc(Cc5nnc6ccc(C)nn56)cc4c3)cn2)C1 [compound 180]
- IC50 [1]: < 100 nM
- EC50 ([2]; Table 2): < 100 nM

Compound: CC(=O)N1CC(Cn2cc(-c3cnc4ccc(Cc5nnc6ccc(C)nn56)cc4c3)cn2)C1 [compound 181]
- IC50 [1]: < 100 nM
- EC50 ([2]; Table 2): 100 to 1000 nM

Compound: Cc1ccc2nnc(Cc3ccc4ncc(-c5cnn(C6CN(S(C)(=O)=O)C6)c5)cc4c3)n2n1 [compound 182]
- IC50 [1]: < 100 nM
- EC50 ([2]; Table 2): 100 to 1000 nM

From patent publication US8071581B2, “Triazolopyridazine protein kinase modulators” (SGX Pharmaceuticals, Inc., priority 2006, dated 2011)
